Test results as given in patent US8629283B2, “Compounds that modulate negative-sense, single-stranded RNA virus replication and uses thereof” (Icahn School of Medicine at Mount Sinai, priority 2008, dated 2014).
“Also recorded” adds a separate entry of the source.

Tested on: influenza virus
Assay type: cell-based

SMILES | susceptibility of passaged versus unpassaged virus (resistance)
CC(=O)c1c(O)c(C)c(O)c(Cc2c(O)c3c(c(C(=O)/C=C/c4ccccc4)c2O)OC(C)(C)C=C3)c1O [rottlerin] | No difference; also recorded: emergence of resistant viruses was not observed
N#Cc1cc2c(OCC(O)CN3CCN(C(c4ccccc4)c4ccccc4)CC3)cccc2[nH]1 (centres unmarked) [SDZ-201106] | No difference; also recorded: emergence of resistant viruses was not observed
